Measured values published in ChEMBL document CHEMBL1201862, “PubChem BioAssay data set” (2004).
Activity calls are given as the source filed them.

Columns and labels:
SUMO E1/E2 = SUMO E1/E2 (Homo sapiens, UniProt P63279+Q9UBE0+Q9UBT2); test: SAR analysis of SUMOylation using HTRF in an in-Vitro dose response assay. [Related pubchem assays (depositor defined):AID2006, AID2011, AID2018, AID2069, AID2658]; assay type: functional
[1] = inhibitors of SNCA 5'UTR-driven reporter translation, confirmation, H4 neuroglioma cells, luminescence (AID 1988); assay type: functional, cell-based
[2] = Luminescence Cell-Based Dose Response HTS to Identify Inhibitors of 5'UTR Stem-Loop Driven Prion Protein mRNA Translation in H4 Neuroglioblastoma Cells. [Related pubchem assays: 1827 (Project Summary), 1813 (Primary HTS)]; assay type: functional
[3] = cytotoxicity in MIN6 insulinoma cells, dose response, cytotoxicity control, cell-based, mouse insulinoma (AID 2122); assay type: functional;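 also: confirmatory high-throughput counterscreen run to flag cytotoxic compounds; mouse MIN-6 beta cells carrying an insulin promoter eGFP reporter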
[4] = inhibitors of firefly luciferase expression or activity, dose response, H4 neuroglioma cells, luminescence (AID 1990); assay type: functional, cell-based
BJ [5] = test: cytotoxicity toward BJ-TERT-LT-ST fibroblasts, dose response, cell-based, RAS-independent, luminescence (AID 1935); assay type: functional; conditions: Homo sapiens;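 also: BJ fibroblasts immortalized with TERT plus LT and ST oncogenes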
BJ [6] = test: cells; assay type: functional, cell-based; conditions: Homo sapiens
[7] = HepG2 cell cytotoxicity, dose response, cytotoxicity control for non-replicating M. tuberculosis project (AID 489018); assay type: functional; conditions: Mycobacterium tuberculosis
cells = assay type: functional
[8] = Vero E6 cell cytotoxicity, dose response, cytotoxicity control for non-replicating M. tuberculosis project, secondary assay (AID 492998); assay type: functional, VeroE6; conditions: Vero C1008
BJ [9] = test: cytotoxicity toward BJ-TERT fibroblasts, dose response, cell-based, RAS-independent, luminescence (AID 1933); assay type: functional; conditions: Homo sapiens
[10] = cytotoxicity toward DRD oncogenic fibroblasts, dose response, cell-based, non-viral oncogenic, luminescence (AID 1934); assay type: functional; conditions: Homo sapiens
[11] = cytotoxicity in HEK-293T cells, dose response, cytotoxicity control for TCR NF-kB inhibitor project, luminescence, T-cell screen hits (AID 489026); assay type: functional, cell-based;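 also: cells exposed to compound about 14 hours before the viability readout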
[12] = THP-1 cell cytotoxicity, dose response, cytotoxicity control for non-replicating M. tuberculosis project (AID 489025); assay type: functional
[13] = insulin promoter down-regulators in MIN6 cells, imaging, high-content screening, mouse beta cells (AID 1628); assay type: functional
[14] = target: T1, Tyrosine-protein phosphatase non-receptor type 7 (Homo sapiens, UniProt P35236); assay type: functional
T1 sequence (P35236 whole entry): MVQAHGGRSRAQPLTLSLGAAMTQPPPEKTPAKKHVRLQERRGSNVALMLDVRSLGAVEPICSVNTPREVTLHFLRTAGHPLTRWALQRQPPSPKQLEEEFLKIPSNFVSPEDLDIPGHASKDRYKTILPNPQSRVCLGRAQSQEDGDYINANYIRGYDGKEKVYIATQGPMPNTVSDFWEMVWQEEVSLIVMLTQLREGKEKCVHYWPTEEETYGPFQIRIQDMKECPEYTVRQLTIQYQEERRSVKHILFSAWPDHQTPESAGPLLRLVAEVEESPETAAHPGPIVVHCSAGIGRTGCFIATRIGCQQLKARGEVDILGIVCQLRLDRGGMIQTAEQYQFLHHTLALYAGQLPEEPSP

[15] = target: T2, Tyrosine-protein phosphatase non-receptor type 22 (Homo sapiens, UniProt Q9Y2R2); assay type: functional
T2 sequence (Q9Y2R2 whole entry): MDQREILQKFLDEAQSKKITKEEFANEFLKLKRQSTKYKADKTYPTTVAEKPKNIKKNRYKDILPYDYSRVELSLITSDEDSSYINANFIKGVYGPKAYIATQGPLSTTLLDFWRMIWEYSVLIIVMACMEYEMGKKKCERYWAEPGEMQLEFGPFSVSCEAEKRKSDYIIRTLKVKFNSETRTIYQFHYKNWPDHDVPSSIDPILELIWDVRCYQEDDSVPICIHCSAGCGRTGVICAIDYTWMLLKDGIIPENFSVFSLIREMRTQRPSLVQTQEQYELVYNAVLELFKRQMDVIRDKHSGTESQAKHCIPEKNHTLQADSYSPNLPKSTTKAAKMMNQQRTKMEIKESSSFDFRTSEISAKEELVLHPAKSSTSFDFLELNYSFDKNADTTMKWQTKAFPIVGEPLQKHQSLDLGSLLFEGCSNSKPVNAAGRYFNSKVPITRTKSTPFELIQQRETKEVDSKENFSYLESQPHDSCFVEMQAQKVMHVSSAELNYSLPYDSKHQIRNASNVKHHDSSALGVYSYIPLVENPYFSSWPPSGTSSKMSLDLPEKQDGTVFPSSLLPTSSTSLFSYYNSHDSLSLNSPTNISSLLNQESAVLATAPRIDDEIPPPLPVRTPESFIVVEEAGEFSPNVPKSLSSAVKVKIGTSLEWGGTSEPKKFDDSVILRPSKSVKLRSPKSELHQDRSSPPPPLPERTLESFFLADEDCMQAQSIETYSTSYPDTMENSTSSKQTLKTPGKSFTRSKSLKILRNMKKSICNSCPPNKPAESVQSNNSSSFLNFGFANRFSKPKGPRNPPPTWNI

[16] = target: T2, Tyrosine-protein phosphatase non-receptor type 22; assay type: functional; remark: listed apart in the source
[17] = target: Lysine-specific demethylase 4C (Homo sapiens, UniProt Q9H3R0); test: GASC-1 (JMJD2C) histone demethylase inhibitors, dose response, biochemical, DELFIA europium, cherry-picked samples (AID 488835); assay type: functional
[18] = target: Lysine-specific demethylase 4A (Homo sapiens, UniProt O75164); test: JMJD2A histone demethylase inhibitors, dose response, selectivity assay for GASC-1 inhibitor project, biochemical, DELFIA europium, cherry-picked samples (AID 488840)
[19] = target: T3, Replicative DNA helicase DnaB (Mycobacterium tuberculosis, UniProt P9WMR3); test: DnaB intein splicing inhibitors, dose response, biochemical, cell-free fluorescence (AID 449749); assay type: functional
T3 sequence (P9WMR3 whole entry): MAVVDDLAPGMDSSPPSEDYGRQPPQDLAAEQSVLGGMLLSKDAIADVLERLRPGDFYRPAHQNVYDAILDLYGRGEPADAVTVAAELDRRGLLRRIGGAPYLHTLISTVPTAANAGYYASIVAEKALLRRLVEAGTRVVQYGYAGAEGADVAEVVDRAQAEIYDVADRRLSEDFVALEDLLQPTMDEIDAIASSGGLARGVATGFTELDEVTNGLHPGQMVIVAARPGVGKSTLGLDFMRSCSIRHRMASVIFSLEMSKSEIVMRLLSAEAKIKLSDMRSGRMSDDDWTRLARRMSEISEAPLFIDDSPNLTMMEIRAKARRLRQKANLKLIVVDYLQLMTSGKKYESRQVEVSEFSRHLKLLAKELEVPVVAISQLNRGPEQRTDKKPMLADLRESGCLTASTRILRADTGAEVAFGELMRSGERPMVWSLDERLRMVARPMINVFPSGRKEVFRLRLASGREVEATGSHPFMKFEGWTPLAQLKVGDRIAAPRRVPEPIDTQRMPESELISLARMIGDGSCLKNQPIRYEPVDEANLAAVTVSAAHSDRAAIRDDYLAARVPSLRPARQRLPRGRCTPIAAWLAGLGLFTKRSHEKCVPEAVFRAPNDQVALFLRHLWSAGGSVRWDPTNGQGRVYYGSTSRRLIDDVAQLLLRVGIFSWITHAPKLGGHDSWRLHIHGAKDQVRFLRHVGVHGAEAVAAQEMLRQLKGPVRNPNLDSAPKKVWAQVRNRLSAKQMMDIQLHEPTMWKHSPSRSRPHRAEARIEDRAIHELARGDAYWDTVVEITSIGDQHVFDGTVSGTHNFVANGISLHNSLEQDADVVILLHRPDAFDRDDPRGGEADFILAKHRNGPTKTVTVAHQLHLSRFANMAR

Protein RecA = target: T4, Protein RecA (Mycobacterium tuberculosis, UniProt P9WHJ3); test: Fluorescence Cell-Free Homogeneous Dose Retest to Identify Inhibitors of RecA-Intein Splicing Activity. [Related pubchem assays (depositor defined):AID2097, AID2223, AID489010, AID492950]; assay type: functional
T4 sequence (P9WHJ3 whole entry): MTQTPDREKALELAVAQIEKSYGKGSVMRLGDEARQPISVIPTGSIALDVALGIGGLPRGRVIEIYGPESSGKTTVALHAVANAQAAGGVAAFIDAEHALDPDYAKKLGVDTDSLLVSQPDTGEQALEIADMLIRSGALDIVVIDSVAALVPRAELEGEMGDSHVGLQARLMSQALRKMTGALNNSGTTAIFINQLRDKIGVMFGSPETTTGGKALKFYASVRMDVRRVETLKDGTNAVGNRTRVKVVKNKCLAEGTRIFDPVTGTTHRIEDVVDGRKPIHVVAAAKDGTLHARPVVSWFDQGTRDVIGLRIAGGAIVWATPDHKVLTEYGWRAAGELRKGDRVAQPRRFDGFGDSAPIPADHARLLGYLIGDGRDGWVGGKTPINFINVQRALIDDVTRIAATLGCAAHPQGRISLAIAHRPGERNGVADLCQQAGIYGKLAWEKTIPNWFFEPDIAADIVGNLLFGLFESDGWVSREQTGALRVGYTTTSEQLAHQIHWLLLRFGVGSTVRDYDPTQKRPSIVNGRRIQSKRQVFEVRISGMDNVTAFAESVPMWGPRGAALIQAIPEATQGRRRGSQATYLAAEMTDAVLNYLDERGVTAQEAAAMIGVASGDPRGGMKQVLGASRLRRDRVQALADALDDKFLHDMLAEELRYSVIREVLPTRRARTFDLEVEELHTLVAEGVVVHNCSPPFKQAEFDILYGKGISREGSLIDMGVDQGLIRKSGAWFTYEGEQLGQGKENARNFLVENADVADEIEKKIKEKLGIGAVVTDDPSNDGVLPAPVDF

Cytochrome P450 2D6 = Cytochrome P450 2D6 (Homo sapiens, UniProt P10635);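 also: CYP2D6 member of a cytochrome P450 panel assay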
Chain of Cytochrome P450 2D6 (P10635 whole entry): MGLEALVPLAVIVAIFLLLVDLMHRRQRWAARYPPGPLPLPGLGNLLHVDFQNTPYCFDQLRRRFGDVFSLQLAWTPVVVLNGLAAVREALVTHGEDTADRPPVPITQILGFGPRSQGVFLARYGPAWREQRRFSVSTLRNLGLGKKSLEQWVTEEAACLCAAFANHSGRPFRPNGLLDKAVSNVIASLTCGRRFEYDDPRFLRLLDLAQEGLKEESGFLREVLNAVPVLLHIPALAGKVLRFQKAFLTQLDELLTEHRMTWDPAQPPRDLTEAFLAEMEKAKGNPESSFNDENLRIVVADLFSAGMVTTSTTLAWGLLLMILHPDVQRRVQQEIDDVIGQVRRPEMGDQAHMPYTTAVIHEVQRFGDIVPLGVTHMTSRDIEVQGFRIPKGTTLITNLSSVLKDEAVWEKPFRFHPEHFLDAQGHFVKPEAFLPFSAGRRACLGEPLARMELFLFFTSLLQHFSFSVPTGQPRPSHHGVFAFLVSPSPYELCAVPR

Chain of Lysine-specific demethylase 4C (Q9H3R0 whole entry): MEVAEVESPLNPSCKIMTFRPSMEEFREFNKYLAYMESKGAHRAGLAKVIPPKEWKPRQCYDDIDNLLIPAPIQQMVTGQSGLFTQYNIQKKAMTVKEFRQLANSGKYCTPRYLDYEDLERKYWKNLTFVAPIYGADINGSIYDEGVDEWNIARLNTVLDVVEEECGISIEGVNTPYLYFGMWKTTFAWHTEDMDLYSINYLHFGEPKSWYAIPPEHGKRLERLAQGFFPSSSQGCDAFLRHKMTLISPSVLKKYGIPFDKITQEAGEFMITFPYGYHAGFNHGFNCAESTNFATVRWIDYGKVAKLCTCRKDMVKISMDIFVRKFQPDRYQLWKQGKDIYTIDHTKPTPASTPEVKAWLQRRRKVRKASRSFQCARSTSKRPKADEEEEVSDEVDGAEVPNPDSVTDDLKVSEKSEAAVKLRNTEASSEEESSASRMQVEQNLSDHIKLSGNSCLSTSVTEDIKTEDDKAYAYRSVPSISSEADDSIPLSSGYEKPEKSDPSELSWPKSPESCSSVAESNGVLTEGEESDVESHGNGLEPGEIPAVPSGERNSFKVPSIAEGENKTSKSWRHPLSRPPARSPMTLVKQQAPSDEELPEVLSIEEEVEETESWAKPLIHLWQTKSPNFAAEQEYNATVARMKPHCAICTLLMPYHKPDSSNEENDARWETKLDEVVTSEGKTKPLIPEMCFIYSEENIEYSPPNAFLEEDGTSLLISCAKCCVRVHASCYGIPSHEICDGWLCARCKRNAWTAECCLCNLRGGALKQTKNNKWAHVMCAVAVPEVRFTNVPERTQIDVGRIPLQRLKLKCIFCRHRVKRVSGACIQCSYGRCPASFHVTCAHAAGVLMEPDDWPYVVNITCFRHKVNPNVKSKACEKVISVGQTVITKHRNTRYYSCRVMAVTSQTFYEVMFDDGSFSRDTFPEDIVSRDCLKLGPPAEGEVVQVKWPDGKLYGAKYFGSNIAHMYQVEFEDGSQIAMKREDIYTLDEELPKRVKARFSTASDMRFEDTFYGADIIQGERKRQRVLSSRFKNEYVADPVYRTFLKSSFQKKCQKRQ
Chain of Lysine-specific demethylase 4A (O75164 whole entry): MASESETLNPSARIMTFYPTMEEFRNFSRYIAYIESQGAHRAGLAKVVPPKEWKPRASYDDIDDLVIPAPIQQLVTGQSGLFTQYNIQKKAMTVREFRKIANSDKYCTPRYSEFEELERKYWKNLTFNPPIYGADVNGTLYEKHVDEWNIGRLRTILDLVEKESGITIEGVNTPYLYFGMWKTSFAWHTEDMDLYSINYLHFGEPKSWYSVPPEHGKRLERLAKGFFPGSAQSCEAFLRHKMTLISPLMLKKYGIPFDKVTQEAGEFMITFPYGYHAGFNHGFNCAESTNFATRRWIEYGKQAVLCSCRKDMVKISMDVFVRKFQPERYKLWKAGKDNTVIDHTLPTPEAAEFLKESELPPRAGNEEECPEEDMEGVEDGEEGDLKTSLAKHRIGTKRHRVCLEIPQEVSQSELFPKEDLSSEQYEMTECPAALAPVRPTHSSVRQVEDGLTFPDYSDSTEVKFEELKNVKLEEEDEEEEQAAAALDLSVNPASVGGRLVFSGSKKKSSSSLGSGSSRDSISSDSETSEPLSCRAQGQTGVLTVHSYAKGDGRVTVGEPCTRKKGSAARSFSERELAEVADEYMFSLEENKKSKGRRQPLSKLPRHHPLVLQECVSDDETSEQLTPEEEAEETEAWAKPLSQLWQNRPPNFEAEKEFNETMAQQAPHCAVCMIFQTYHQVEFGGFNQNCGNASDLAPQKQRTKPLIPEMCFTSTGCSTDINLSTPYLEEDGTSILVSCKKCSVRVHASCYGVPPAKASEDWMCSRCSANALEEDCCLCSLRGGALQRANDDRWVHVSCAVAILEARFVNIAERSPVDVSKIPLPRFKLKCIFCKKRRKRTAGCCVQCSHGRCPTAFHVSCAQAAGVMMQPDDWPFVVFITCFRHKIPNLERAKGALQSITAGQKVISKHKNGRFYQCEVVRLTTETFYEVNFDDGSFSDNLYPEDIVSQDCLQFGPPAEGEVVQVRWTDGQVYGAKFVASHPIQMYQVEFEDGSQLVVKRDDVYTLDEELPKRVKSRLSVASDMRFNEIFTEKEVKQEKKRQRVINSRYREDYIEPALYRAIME
Chain of SUMO E1/E2 (Q9UBE0 whole entry): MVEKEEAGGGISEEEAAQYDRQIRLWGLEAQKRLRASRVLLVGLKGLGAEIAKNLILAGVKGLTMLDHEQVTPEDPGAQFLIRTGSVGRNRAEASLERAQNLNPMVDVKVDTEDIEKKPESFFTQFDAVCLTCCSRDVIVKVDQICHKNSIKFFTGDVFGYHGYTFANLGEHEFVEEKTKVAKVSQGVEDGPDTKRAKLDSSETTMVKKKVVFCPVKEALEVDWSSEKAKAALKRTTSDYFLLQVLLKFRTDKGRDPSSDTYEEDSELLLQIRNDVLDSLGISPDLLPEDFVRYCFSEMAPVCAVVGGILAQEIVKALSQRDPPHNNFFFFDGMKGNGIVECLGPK
Chain of SUMO E1/E2 (Q9UBT2 whole entry): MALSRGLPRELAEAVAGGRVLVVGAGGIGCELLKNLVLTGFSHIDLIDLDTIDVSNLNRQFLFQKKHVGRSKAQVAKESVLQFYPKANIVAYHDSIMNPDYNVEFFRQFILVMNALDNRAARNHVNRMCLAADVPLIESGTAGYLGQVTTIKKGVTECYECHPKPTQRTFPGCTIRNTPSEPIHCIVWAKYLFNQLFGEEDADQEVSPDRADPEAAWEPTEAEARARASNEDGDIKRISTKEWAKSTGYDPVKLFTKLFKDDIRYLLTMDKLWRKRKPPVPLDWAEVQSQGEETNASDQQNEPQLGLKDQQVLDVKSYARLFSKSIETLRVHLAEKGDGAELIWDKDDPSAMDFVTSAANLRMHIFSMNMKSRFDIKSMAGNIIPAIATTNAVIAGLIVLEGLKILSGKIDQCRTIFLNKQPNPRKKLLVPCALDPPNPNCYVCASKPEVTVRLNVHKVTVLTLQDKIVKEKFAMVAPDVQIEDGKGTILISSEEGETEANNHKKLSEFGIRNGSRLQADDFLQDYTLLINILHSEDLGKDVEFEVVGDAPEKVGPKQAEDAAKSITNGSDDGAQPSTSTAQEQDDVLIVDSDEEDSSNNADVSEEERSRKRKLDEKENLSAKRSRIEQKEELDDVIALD
Chain of SUMO E1/E2 (P63279 whole entry): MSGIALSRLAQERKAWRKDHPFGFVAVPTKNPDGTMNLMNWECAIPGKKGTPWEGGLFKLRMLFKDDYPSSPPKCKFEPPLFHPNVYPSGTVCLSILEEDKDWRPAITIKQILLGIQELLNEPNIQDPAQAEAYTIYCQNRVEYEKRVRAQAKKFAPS

Q: For CC(=NOCc1nc2ccccc2c(=O)n1N=Cc1cc([N+](=O)[O-])ccc1O)c1ccccc1, which IC50 (SUMO E1/E2) is on record?
A: The IC50 was 27000 nM (active).

Q: Which results are given for COc1ccc(Nc2cc(C)nc(-n3nc(C)cc3C)n2)cc1?
A: EC50 [1]: < 195 nM (active); EC50 [2]: 142 nM (active); IC50 [3]: < 250 nM (active); EC50 [4]: 266 nM (active); EC50 (BJ [5]): 388 nM (inconclusive); EC50 (BJ [6]): 973 nM (active); CC50 [7]: > 20000 nM (active); IC50 (cells): 380 nM (active); CC50 [8]: 1410 nM (active); EC50 (BJ [9]): 625 nM (active); EC50 [10]: 400 nM (active); IC50 [11]: > 80000 nM (inactive); CC50 [12]: 201 nM (active); IC50 [13]: 2540 nM (active)

Q: Which results are given for Cc1ccc(N2CCN(CCCCN3C(=O)C4CCCN4C3=O)CC2)cc1 (stereo not drawn)?
A: IC50 [14]: > 79400 nM (inactive); IC50 [15]: > 79400 nM (inactive); IC50 [16]: > 79400 nM (inactive)

Q: With COc1ccccc1NC(=O)COC(=O)c1nc(O)nc(O)c1N as the compound, how does the AC50 [17] read?
A: Its AC50 is 6730 nM (active).

Q: And the AC50 [18]?
A: The AC50 was 8340 nM (active).

Q: What does the source list for CCO/C(O)=C1/C(C)=NC2(O)c3ccccc3C(=O)C12O (stereo not drawn)?
A: AC50 [19]: 24000 nM (active); EC50 (Protein RecA): 18100 nM (active); AC50 (Cytochrome P450 2D6): inconclusive
